# Results as given in US10787442B2, “Modulators of indoleamine 2,3-dioxygenase” (GLAXOSMITHKLINE INTELLECTUAL PROPERTY DEVELOPMENT LIMITED, priority 2016, dated 2020).
# Read-outs that look alike come from different tables or passages of the source.
# Assays:
# [1] = Toxicokinetics in Beagle dogs, 7 day repeat oral administration; format: in vivo, Beagle dog; settings: for Tmax / Cmax / AUC(0-t): Beagle, dog, plasma; for Therapeutic Index AUC (0-12 hr): versus predicted human efficacious AUC; for Therapeutic Index Cmax: versus predicted human efficacious Cmax; for Cmax / AUC(0-t): po; for AUC(0-t): read-out: AUC (0-12 hr)
# From the text: (§1) To understand its toxicokinetics and potential effect on hepatic functions, EXAMPLE 6 was orally dosed to Beagle dogs for 7 consecutive days.
# [2] = Tolerability and hepatic functions in Beagle dogs, 7 day repeat oral administration; format: in vivo, Beagle dog
# From the text: as §1
# [3] = target: indoleamine 2, 3-dioxygenase (IDO1) (Homo sapiens, UniProt P14902); experiment: IDO1 HeLa RapidFire MS Assay (kynurenine by mass spectrometry); format: cell-based; settings: HeLa cells stimulated with IFN-γ, 2 days; recorded as pIC50; read-out: IDO1 HeLa PXC50 (converted)
# Procedure: IDO1 HeLa RapidFire MS Assay
# Compounds of the present invention were tested via high-throughput cellular assays utilizing detection of kynurenine via mass spectrometry and cytotoxicity as end-points. […] Compounds with IDO1 inhibitory properties decreased the amount of kynurenine produced by the cells via the tryptophan catabolic pathway. Cellular toxicity due to the effect of compound treatment was measured using CellTiter-Glo® reagent (CTG) (Promega Corporation, Madison, Wis.), which is based on luminescent detection of ATP, an indicator of metabolically active cells.
# In preparation for the assays, test compounds were serially diluted 3-fold in DMSO from a typical top concentration of 1 mM or 5 mM and plated at 0.5 μL in 384-well, polystyrene, clear bottom, tissue culture treated plates with lids (Greiner Bio-One, Kremsmünster, Austria) to generate 11-point dose response curves. Low control wells (0% kynurenine or 100% cytotoxicity) contained either 0.5 μL of DMSO in the presence of unstimulated (−IFN-γ) HeLa cells for the mass spectrometry assay or 0.5 μL of DMSO in the absence of cells for the cytotoxicity assay, and high control wells (100% kynurenine or 0% cytotoxicity) contained 0.5 μL of DMSO in the presence of stimulated (+IFN-γ) HeLa cells for both the mass spectrometry and cytotoxicity assays.
# Frozen stocks of HeLa cells were washed and recovered in DMEM high glucose medium with HEPES (Thermo Fisher Scientific, Inc., Waltham, Mass.) supplemented with 10% v/v certified fetal bovine serum (FBS) (Thermo Fisher Scientific, Inc., Waltham, Mass.), and 1× penicillin-streptomycin antibiotic solution (Thermo Fisher Scientific, Inc., Waltham, Mass.). The cells were diluted to 100,000 cells/mL in the supplemented DMEM medium. 50 μL of either the cell suspension, for the mass spectrometry assay, or medium alone, for the cytotoxicity assay, were added to the low control wells, on the previously prepared 384-well compound plates, resulting in 5,000 cells/well or 0 cells/well respectively. IFN-γ was added to the remaining cell suspension at a final concentration of 10 nM, and 50 μL of the stimulated cells were added to all remaining wells on the 384-well compound plates. The plates, with lids, were then placed in a 37° C., 5% CO2 humidified incubator for 2 days.
# Following incubation, the 384-well plates were removed from the incubator and allowed to equilibrate to room temperature for 30 minutes. For the cytotoxicity assay, CellTiter-Glo® was prepared according to the manufacturer's instructions, and 10 μL were added to each plate well. After a twenty minute incubation at room temperature, luminescence was read on an EnVision® Multilabel Reader (PerkinElmer Inc., Waltham, Mass.). For the mass spectrometry assay, 10 μL of supernatant from each well of the compound-treated plates were added to 40 μL of acetonitrile, containing 10 μM of an internal standard for normalization, in 384-well, polypropylene, V-bottom plates (Greiner Bio-One, Kremsmünster, Austria) to extract the organic analytes. Following centrifugation at 2000 rpm for 10 minutes, 10 μL from each well of the acetonitrile extraction plates were added to 90 μL of sterile, distilled H2O in 384-well, polypropylene, V-bottom plates for analysis of kynurenine and the internal standard on the RapidFire 300 (Agilent Technologies, Santa Clara, Calif.) and 4000 QTRAP MS (SCIEX, Framingham, Mass.). MS data were integrated using Agilent Technologies' RapidFire Integrator software, and data were normalized for analysis as a ratio of kynurenine to the internal standard.
# [4] = female, 20 mg/kg, Day1, Female, 20 mg/kg PO BID
# [5] = female, 20 mg/kg, Day7, Female, 20 mg/kg PO BID
# [6] = male, 20 mg/kg, Day1, Male, 20 mg/kg PO BID
# [7] = male, 20 mg/kg, Day7, Male, 20 mg/kg PO BID
# indoleamine 2, 3-dioxygenase (IDO1), sequence (P14902 whole entry): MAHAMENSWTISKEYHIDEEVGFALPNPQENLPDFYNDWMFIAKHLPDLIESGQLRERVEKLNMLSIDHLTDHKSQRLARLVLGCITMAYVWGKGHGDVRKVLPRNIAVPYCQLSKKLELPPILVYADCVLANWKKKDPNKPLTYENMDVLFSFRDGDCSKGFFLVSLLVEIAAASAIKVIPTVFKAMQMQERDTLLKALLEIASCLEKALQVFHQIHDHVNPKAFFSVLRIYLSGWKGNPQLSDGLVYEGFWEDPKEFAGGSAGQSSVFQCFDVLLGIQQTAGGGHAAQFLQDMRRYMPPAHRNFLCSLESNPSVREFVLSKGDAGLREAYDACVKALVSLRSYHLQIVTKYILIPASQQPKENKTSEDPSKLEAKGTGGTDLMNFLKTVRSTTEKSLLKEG
structure (smiles),measurement,setting,value
"CC(C)CN(c1ncc([C@H](C)CC(=O)O)cc1Nc1ccc(Cl)cn1)C1CCOCC1 [Example 6, (R)-3-(5-((5-chloropyridin-2-yl)amino)-6-(isobutyl(tetrahydro-2H-pyran-4-yl)amino)pyridin-3-yl)butanoic acid]",Tmax,"[1]; oral, 20 mg/kg, post dose on Days 1 and 7",30 min
same,Tmax,"[1]; Day1, Female, 20 mg/kg PO BID",30 min
same,Tmax,"[1]; Day1, Male, 20 mg/kg PO BID",30 min
same,Therapeutic Index AUC (0-12 hr),"[1]; Day1, Female, 20 mg/kg",15
same,Therapeutic Index Cmax,"[1]; Day1, Female, 20 mg/kg",86
same,Therapeutic Index AUC (0-12 hr),"[1]; Day1, Male, 20 mg/kg",25
same,Therapeutic Index Cmax,"[1]; Day1, Male, 20 mg/kg",237
same,average therapeutic coverage in AUC for the predicted human efficacious dose,[1]; Day 7,~34 fold
same,average therapeutic coverage in Cmax for the predicted human efficacious dose,[1]; Day 7,~147 fold
same,Therapeutic Index AUC (0-12 hr),"[1]; Day7, Female, 20 mg/kg",51
same,Therapeutic Index Cmax,"[1]; Day7, Female, 20 mg/kg",102
same,Therapeutic Index AUC (0-12 hr),"[1]; Day7, Male, 20 mg/kg",18
same,Therapeutic Index Cmax,"[1]; Day7, Male, 20 mg/kg",191
same,quantifiable in plasma post the start of the oral dose,[1]; Days 1 and 7,up to 24 hours
same,Cmax on Days 1 and 7,[1]; female dog,comparable
same,increase in AUC0-12 following 7 day repeat dosing,[1]; female dog,~3 fold
same,Cmax,[1]; [4],3700 ng/mL
same,AUC(0-t),[1]; [4],5200 ng·h/mL
same,Cmax,[1]; [5],4400 ng/mL
same,AUC(0-t),[1]; [5],17900 ng·h/mL
same,systemic exposure (Cmax and AUC0-12 values) on Days 1 and 7,[1]; male dog,similar
same,Cmax,[1]; [6],10200 ng/mL
same,AUC(0-t),[1]; [6],8700 ng·h/mL
same,Cmax,[1]; [7],8200 ng/mL
same,AUC(0-t),[1]; [7],6500 ng·h/mL
same,clinical observations,[2]; 20 mg/kg PO BID for 7 days,no clinical observations
same,tolerability throughout the study,[2]; 20 mg/kg PO BID for 7 days,well tolerated
same,"Hepatic functions measured by serum ALT, AST, ALP and T-Bil levels","[2]; 20 mg/kg PO BID for 7 days, FIG. 2",in the normal variable ranges
same,Body weights,"[2]; male and female dogs over the study, FIG. 1",constant
same,IC50,[3],7.94 nM
